Here are results for 17 molecules from patent US8921397B2, “Benzofurane-piperidine compounds” (Hoffmann-La Roche Inc., priority 2011, dated 2014).

pKi: −log10 of the molar value.

One series addresses human 5-HT2A receptor (Homo sapiens (Human), UniProt P28223). The series is described as follows: Radioligand binding ([3H]-ketanserin) to human 5-HT2A receptor, HEK293 EBNA membranes. The settings on record: HEK293 EBNA cells expressing human 5-HT2A receptor. The procedure: The ability of the compounds to bind to the 5-HT2A, D3 and D2 receptors was determined using radioligand binding to cloned receptors selectively expressed in HEK-293 EBNA cells.
(§1) HEK293 EBNA cells were transiently transfected with expression plasmids encoding for the human D2 or D3 or for the human 5-HT2A receptor, respectively. The cells were harvested 48 h post-transfection, washed three times with cold PBS and stored at −80° C. prior to use. The pellet was suspended in cold 50 mM Tris-HCl buffer containing 10 mM EDTA (pH 7.4) and was homogenized with a Polytron (Kinematica AG, Basel, Switzerland) for 20-30 sec at 12.000 rpm. After centrifugation at 48.000×g for 30 min at 4° C., the pellet was resuspended in cold 10 mM Tris-HCl buffer containing 0.1 mM EDTA (pH 7.4), homogenized, and centrifuged as above. This pellet was further resuspended in a smaller volume of ice cold 10 mM Tris-HCl buffer containing 0.1 mM EDTA (pH 7.4) and homogenized with a Polytron for 20-30 sec at 12.000 rpm. The protein content of this homogenate was determined with the Bio-Rad (Bradford) Protein Assay (Biorad Laboratories GmbH, München, Germany) according to the instructions of the manufacturer using gamma globulin as the standard. This homogenate was stored at −80° C. in aliquots and thawed immediately prior to use.
(§2) Aliquots of membrane preparations were thawed at RT, resuspended in assay buffer (D2, D3: 50 mM Tris-HCl, 120 mM NaCl, 5 mM MgCl2, 1 mM EDTA, 5 mM KCl, 1.5 mM CaCl2, pH=7.4; 5-HT2A: 50 mM Tris-HCl, 10 mM MgCl2, 1 mM EGTA, pH=7.4), homogenized with a Polytron for 20-30 sec at 12.000 rpm and adjusted to a final concentration of approximately 7.5 μg protein/well (D2, D3) and 15 μg protein/well (5-HT2A), respectively.
(§3) The binding affinity (Ki) of the compounds was determined using radioligand binding.
(§4) Membranes were incubated in a total volume of 200 μl with a fixed concentration of radioligand (final concentration approximately 0.7 nM [^3H]-spiperone for D2, 0.5 nM [^3 H]-spiperone for D3, and 1.1 nM [^3H]-ketanserin for 5-HT2A) and ten concentrations of test compound in ranging between 10 μM-0.1 nM for 1 h at RT. At the end of the incubation, the reaction mixtures were filtered on to unifilter 96-well white microplates with bonded GF/C filters (Packard BioScience, Zürich, Switzerland; preincubated for 1 h in 0.1% polyethylenimine (PEI) in assay buffer) with a Filtermate 196 harvester (Packard BioScience) and washed 3 times with cold assay buffer. The nonspecific binding was determined with equally composed reaction mixtures in the presence of 10 μM unlabelled spiperone. Per well 45 μl of Microscint 40 (Perkin Elmer, Schwerzenbach, Switzerland) was added, plates for sealed, shaken for 20 min and counted for 3 min on a Topcount Microplate Scintillation Counter (Canberra Packard SA, Zürich, Switzerland) with quenching correction.
(§5) The CPM value for each duplicate of a concentration of competing compound was averaged (y1), then the % specific binding was calculated according to the equation (((y1−non-specific)/(total binding−non-specific))×100). Graphs were plotted with the % specific binding using XLfit, a curve-fitting program that iteratively plots the data using Levenberg-Marquardt algorithm. The single site competition analysis equation used was y=A+((B−A)/(1+((x/C)D))), where y is the % specific binding, A is the minimum y, B is the maximum y, C is the IC50, x is the log 10 of the concentration of the competing compound and D is the slope of the curve (the Hill Coefficient). From these curves the IC50 (inhibition concentration at which 50% specific binding of the radioligand was displaced) and Hill coefficient were determined. The affinity constant (Ki) was calculated using the Cheng-Prusoff equation Ki=(IC50/1+([L]/Kd), where [L] is the concentration of radioligand and Kd is the dissociation constant of the radioligand at the receptor as determined by the saturation isotherm.

The next series concerns the target human D2 receptor (Homo sapiens (Human), UniProt P14416). Description: Radioligand binding ([3H]-spiperone) to human D2 receptor, HEK293 EBNA membranes. To be noted: HEK293 EBNA cells expressing human D2 receptor. As to the method:
as §1, §2, §3, §4, §5

Another series deals with human D3 receptor (Homo sapiens (Human), UniProt P35462). Description: Radioligand binding ([3H]-spiperone) to human D3 receptor, HEK293 EBNA membranes. The settings on record: HEK293 EBNA cells expressing human D3 receptor. As to the method:
as §1, §2, §3, §4, §5

Sequence of human 5-HT2A receptor (P28223 whole entry): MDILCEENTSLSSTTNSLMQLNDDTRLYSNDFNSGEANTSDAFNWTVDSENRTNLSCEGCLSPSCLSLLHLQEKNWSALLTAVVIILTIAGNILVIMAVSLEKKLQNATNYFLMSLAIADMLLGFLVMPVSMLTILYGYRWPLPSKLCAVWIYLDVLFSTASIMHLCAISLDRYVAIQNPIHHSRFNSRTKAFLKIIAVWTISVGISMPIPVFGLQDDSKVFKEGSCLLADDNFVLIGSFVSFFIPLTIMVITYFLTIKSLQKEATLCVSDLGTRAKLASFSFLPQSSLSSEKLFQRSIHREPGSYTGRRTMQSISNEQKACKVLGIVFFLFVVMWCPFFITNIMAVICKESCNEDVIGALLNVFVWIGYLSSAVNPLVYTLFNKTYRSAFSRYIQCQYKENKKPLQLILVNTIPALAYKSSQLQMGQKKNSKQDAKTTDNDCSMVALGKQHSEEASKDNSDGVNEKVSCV
Sequence of human D3 receptor (P35462 whole entry): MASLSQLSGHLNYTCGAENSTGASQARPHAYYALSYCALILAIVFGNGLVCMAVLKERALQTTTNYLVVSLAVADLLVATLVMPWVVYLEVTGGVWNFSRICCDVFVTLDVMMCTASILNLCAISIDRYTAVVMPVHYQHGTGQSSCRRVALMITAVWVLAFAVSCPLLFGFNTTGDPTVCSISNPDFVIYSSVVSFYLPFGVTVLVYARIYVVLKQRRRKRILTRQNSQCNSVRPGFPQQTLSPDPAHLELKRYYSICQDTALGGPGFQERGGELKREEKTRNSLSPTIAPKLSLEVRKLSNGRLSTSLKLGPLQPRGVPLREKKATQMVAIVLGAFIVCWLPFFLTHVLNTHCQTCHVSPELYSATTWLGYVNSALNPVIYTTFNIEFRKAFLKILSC
Sequence of human D2 receptor (P14416 whole entry): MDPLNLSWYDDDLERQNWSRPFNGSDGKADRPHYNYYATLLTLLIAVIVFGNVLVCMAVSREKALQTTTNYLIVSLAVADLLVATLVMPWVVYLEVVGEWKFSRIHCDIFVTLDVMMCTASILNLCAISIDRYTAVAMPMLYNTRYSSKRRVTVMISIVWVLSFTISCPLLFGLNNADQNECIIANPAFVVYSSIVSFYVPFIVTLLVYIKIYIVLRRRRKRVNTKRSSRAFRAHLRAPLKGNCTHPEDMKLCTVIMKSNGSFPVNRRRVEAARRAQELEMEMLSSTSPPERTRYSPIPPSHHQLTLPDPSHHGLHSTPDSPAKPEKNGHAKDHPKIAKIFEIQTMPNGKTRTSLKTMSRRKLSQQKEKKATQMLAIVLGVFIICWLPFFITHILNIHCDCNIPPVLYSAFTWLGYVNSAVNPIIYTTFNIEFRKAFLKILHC

`CC(C)(C)c1ccc(C(=O)N[C@H]2CC[C@H](CCN3CCC(c4coc5ccccc45)CC3)CC2)cc1` [Example 60, trans-N-{4-[2-(4-Benzofuran-3-yl-piperidin-1-yl)-ethyl]-cyclohexyl}-4-tert-butyl-benzamide] came in with a melting point of 180 °C. Also, at human 5-HT2A receptor, the pKi is 8.42. In addition, the pKi on human D2 receptor is 5.95. Besides, the pKi at human D3 receptor was 8.00.

As for `O=C(N[C@H]1CC[C@H](CCN2CCC(c3coc4ccccc34)CC2)CC1)C1(O)CC1` [Example 22, 1-Hydroxy-cyclopropanecarboxylic acid trans-{4-[2-(4-benzofuran-3-yl-piperidin-1-yl)-ethyl]-cyclohexyl}-amide], the melting point amounted to 200 °C. Further, the pKi at human 5-HT2A receptor was 8.52. Moreover, the pKi at human D2 receptor was 7.32. At human D3 receptor, the pKi is 8.83.

Take `O=C(N[C@H]1CC[C@H](CCN2CCC(c3coc4ccccc34)CC2)CC1)c1ccc(N2CCS(=O)(=O)CC2)cc1` [Example 66, trans-N-{4-[2-(4-Benzofuran-3-yl-piperidin-1-yl)-ethyl]-cyclohexyl}-4-(1,1-dioxo-1λ6-thiomorpholin-4-yl)-benzamide]: the melting point was determined as 269 °C. Further, the negative logarithm of the Ki (pKi) at human 5-HT2A receptor is 8.00. On human D2 receptor, the pKi was 7.72. In addition, the pKi on human D3 receptor is 8.47.

The molecule `O=C(N[C@H]1CC[C@H](CCN2CCC(c3coc4ccccc34)CC2)CC1)c1ccc2c(c1)OCO2` [Example 58, Benzo[1,3]dioxole-5-carboxylic acid trans-{4-[2-(4-benzofuran-3-yl-piperidin-1-yl)-ethyl]-cyclohexyl}-amide] returned a melting point of 198 °C. The pKi at human 5-HT2A receptor is 8.06. Further, at human D2 receptor, the pKi is 7.54. In addition, at human D3 receptor, the pKi was 8.55.

For `O=C(N[C@H]1CC[C@H](CCN2CCC(c3coc4ccccc34)CC2)CC1)C1CC1(F)F` (stereo partly drawn) [Example 30, 2,2-Difluoro-cyclopropanecarboxylic acid trans-{4-[2-(4-benzofuran-3-yl-piperidin-1-yl)-ethyl]-cyclohexyl}-amide], the melting point was 189 °C. At human 5-HT2A receptor, the pKi was 8.07. In addition, at human D2 receptor, the pKi was 7.55. In addition, the pKi on human D3 receptor is 8.45.

With `O=C(N[C@H]1CC[C@H](CCN2CCC(c3coc4ccccc34)CC2)CC1)C12CC3CC(CC(C3)C1)C2` [Example 78, Adamantane-1-carboxylic acid trans-{4-[2-(4-benzofuran-3-yl-piperidin-1-yl)-ethyl]-cyclohexyl}-amide], the melting point stood at 200 °C. Besides, at human 5-HT2A receptor, the pKi was 7.76. Further, the negative-log Ki (pKi) on human D2 receptor is 6.89. The pKi on human D3 receptor was 7.90.

For `O=C(N[C@H]1CC[C@H](CCN2CCC(c3coc4ccccc34)CC2)CC1)C1CC1` [Example 27, Cyclopropanecarboxylic acid trans-{4-[2-(4-benzofuran-3-yl-piperidin-1-yl)-ethyl]-cyclohexyl}-amide], the melting point was determined as 204 °C. In addition, the negative logarithm of the Ki (pKi) at human 5-HT2A receptor is 8.37. Further, at human D2 receptor, the pKi is 7.64. Moreover, the pKi on human D3 receptor is 8.57.

The molecule `O=C(N[C@H]1CC[C@H](CCN2CCC(c3coc4ccccc34)CC2)CC1)c1ccc(C(F)(F)F)cc1` [Example 50, trans-N-{4-[2-(4-Benzofuran-3-yl-piperidin-1-yl)-ethyl]-cyclohexyl}-4-trifluoromethyl-benzamide] returned a melting point of 218 °C. The pKi at human 5-HT2A receptor is 8.32. Also, the negative logarithm of the Ki (pKi) on human D2 receptor is 6.82. Moreover, at human D3 receptor, the pKi was 8.66.

Consider `CC(=O)N[C@H]1CC[C@H](CCN2CCC(c3coc4ccccc34)CC2)CC1` [Example 1, trans-N-{4-[2-(4-Benzofuran-3-yl-piperidin-1-yl)-ethyl]-cyclohexyl}-acetamide], for which the melting point stood at 162 °C. Also, the negative logarithm of the Ki (pKi) at human 5-HT2A receptor was 8.29. Also, the pKi at human D2 receptor was 7.30. Further, at human D3 receptor, the pKi is 8.97.

In the case of `O=C(N[C@H]1CC[C@H](CCN2CCC(c3coc4ccccc34)CC2)CC1)c1ccc(-c2cccnc2)cc1` [Example 64, trans-N-{4-[2-(4-Benzofuran-3-yl-piperidin-1-yl)-ethyl]-cyclohexyl}-4-pyridin-3-yl-benzamide], the melting point was 224 °C. On human 5-HT2A receptor, the pKi is 7.89. The pKi on human D2 receptor was 7.78. In addition, the pKi on human D3 receptor is 8.34.

Regarding `C/C=C/CC(=O)N[C@H]1CC[C@H](CCN2CCC(c3coc4ccccc34)CC2)CC1` [Example 54, (E)-Pent-3-enoic acid trans-{4-[2-(4-benzofuran-3-yl-piperidin-1-yl)-ethyl]-cyclohexyl}-amide], the melting point came out at 165 °C. The pKi on human 5-HT2A receptor is 7.91. Also, the negative-log Ki (pKi) at human D2 receptor was 7.24. The pKi on human D3 receptor was 8.74.

With `O=C(N[C@H]1CC[C@H](CCN2CCC(c3coc4ccccc34)CC2)CC1)C1CCOCC1` [Example 3, Tetrahydro-pyran-4-carboxylic acid trans-{4-[2-(4-benzofuran-3-yl-piperidin-1-yl)-ethyl]-cyclohexyl}-amide], the melting point is 175 °C. Moreover, the pKi at human 5-HT2A receptor was 8.61. Also, the pKi on human D2 receptor was 7.43. Also, on human D3 receptor, the pKi was 8.34.

In turn, `O=C(N[C@H]1CC[C@H](CCN2CCC(c3coc4ccccc34)CC2)CC1)c1ccccc1` [Example 9, trans-N-{4-[2-(4-Benzofuran-3-yl-piperidin-1-yl)-ethyl]-cyclohexyl}-benzamide] had a melting point of 189 °C. In addition, on human 5-HT2A receptor, the pKi is 8.36. In addition, the pKi at human D2 receptor is 7.49. Moreover, the pKi on human D3 receptor was 8.87.

`CC(C)(C)C1CCC(C(=O)N[C@H]2CC[C@H](CCN3CCC(c4coc5ccccc45)CC3)CC2)CC1` (stereo partly drawn) [Example 77, 4-tert-Butyl-cyclohexanecarboxylic acid trans-{4-[2-(4-benzofuran-3-yl-piperidin-1-yl)-ethyl]-cyclohexyl}-amide] displayed a melting point of 199 °C. The negative-log Ki (pKi) at human 5-HT2A receptor was 8.22. Besides, at human D2 receptor, the negative-log Ki (pKi) was 6.46. Besides, the pKi at human D3 receptor is 8.02.

`O=C(N[C@H]1CC[C@H](CCN2CCC(c3coc4ccccc34)CC2)CC1)C1CCC1` [Example 20, Cyclobutanecarboxylic acid trans-{4-[2-(4-benzofuran-3-yl-piperidin-1-yl)-ethyl]-cyclohexyl}-amide] yielded a melting point of 180 °C. For the same molecule, on human 5-HT2A receptor, the pKi is 8.25. Moreover, on human D2 receptor, the pKi is 7.42. Further, the pKi at human D3 receptor was 8.73.

In turn, `CC(C)(C)C(=O)N[C@H]1CC[C@H](CCN2CCC(c3coc4ccccc34)CC2)CC1` [Example 28, trans-N-{4-[2-(4-Benzofuran-3-yl-piperidin-1-yl)-ethyl]-cyclohexyl}-2,2-dimethyl-propionamide] returned a melting point of 157 °C. Besides, on human 5-HT2A receptor, the pKi is 8.22. Also, at human D2 receptor, the pKi was 7.42. For the same molecule, the pKi on human D3 receptor is 7.89.

Take `O=C(N[C@H]1CC[C@H](CCN2CCC(c3coc4ccccc34)CC2)CC1)C(F)(F)F` [Example 39, trans-N-{4-[2-(4-Benzofuran-3-yl-piperidin-1-yl)-ethyl]-cyclohexyl}-2,2,2-trifluoro-acetamide]: the melting point was 152 °C. The pKi at human 5-HT2A receptor was 8.06. Also, the negative logarithm of the Ki (pKi) at human D2 receptor was 7.43. Moreover, the pKi at human D3 receptor is 8.39.
